The results in this text go back to patent US20130065866A1, “DENTINAL DRUG DELIVERY COMPOSITION AND SCREENING METHOD” (UNIVERSITY OF MEDICINE AND DENTISTRY OF NEW JERSEY, priority 2009, published 2013).

Format in all cases: cell-based, murine
Series [1] has as its system LPS-evoked PGE2 production in RAW cells. In words: Direct effect on LPS-evoked PGE2 production in RAW cells. Particulars: direct treatment. From the text: (§1) After the one or more time intervals (e.g., one or more minutes, hours, or days), the diffusate is collected and tested for activity against an isolated dental pulp cell or isolated population of dental pulp cells. An isolated pulpal cell or population of dental pulp cells refers to cells that are removed from their native environment (i.e., the dental pulp). The isolated cells can be cultured primary cells or cultured cell line and include, but are not limited to fibroblasts, odontoblasts, histiocytes, macrophage, granulocytes, mast cells or plasma cells. Exemplary cell lines include, but are not limited to the murine macrophage cell line, RAW 264.7; immortalized mouse odontoblast cell line, MDPC-23; and the murine fibroblast cell line, 3T3.
(§2) As indicated, in some embodiments it is determined whether the diffusate contains a sufficient amount of test agent to inhibit or decrease the expression or activity of at least one inflammatory mediator of the dental pulp cell. In accordance with this embodiment, the isolated pulpal cell or population of dental pulp cells can be challenged with an inflammation-provoking stimulus (e.g., Lipopolysaccharide (LPS), N-formyl-methionyl-leucyl-phenylalanine, or phorbol myristate acetate) either before or after being contacted with the diffusate, so that the effect of the drug diffusing through the dentin barrier on inflammatory mediator production is assessed.
Prostaglandins such as PGE2 and nitric oxide (NO) are inflammatory mediators that are generated in injured tissue and influence vascular tissues, nociceptive nerve endings and immune cells. […] The effect of test agents on the expression or activity of one or more of the above-referenced inflammatory mediators can be determined by conventional methods. For example, mRNA expression can be determined by dot blot, northern blot, or reverse transcriptase (RT)-PCR; protein expression can be determined by western blot or ELISA analysis; and NO production can be determined using a Griess reaction assay (e.g., EMSNOTOT kit) or ozone-based chemiluminescence assay. […]

In series [2] the test system is LPS-evoked NO production in RAW cells. In words: Direct effect on NO production in RAW cells. The settings on record: for reduction of spontaneous NO production: absence of LPS stimulation; for inhibition of LPS-evoked NO production: direct treatment.
Description: as §1, §2
Prostaglandins such as PGE2 and nitric oxide (NO) are inflammatory mediators that are generated in injured tissue and influence vascular tissues, nociceptive nerve endings and immune cells. For example, exposure of immune and other cells to bacterial toxins such as LPS evokes production of PGE2 and NO. Other known mediators of inflammation include, but are not limited to, bradykinin, histamine, leukotrienes (Bd, Cd, Dd, Ed) IL-8, and neutrophil and macrophage lysosomal enzymes. The effect of test agents on the expression or activity of one or more of the above-referenced inflammatory mediators can be determined by conventional methods. For example, mRNA expression can be determined by dot blot, northern blot, or reverse transcriptase (RT)-PCR; protein expression can be determined by western blot or ELISA analysis; and NO production can be determined using a Griess reaction assay (e.g., EMSNOTOT kit) or ozone-based chemiluminescence assay.
The direct effect of drugs and lipids on inflammatory mediator production in RAW cells was determined. […] Measurable amounts of NO were produced in the absence of LPS stimulation (˜15 μM).

For another series, the system named is RAW cells. As to the kind of experiment: Toxicity to cells in the RAW cell study. The settings on record: levels used in this study. The method, then:
The direct effect of drugs and lipids on inflammatory mediator production in RAW cells was determined.

Series [3] relates to PGE2 production in LPS-stimulated RAW cells. In words: Transdentinal diffusion; diffusate applied to LPS-stimulated RAW cells, PGE2. The settings on record: 24 hours of diffusion through dentin; diffusate on RAW cells stimulated with LPS. The method, then:
(§3) This screening method of the invention includes the steps of contacting a coronal surface of an isolated dentin sample with a test agent, incubating the test agent and dentin sample so that diffusate is formed on the pulpal side of the dentin sample, contacting an isolated dental pulp cell with the diffusate, and determining whether the diffusate contains a sufficient amount of test agent to act on a cell of the dental pulp. In one embodiment, it is determined whether the diffusate contains a sufficient amount of test agent to inhibit or decrease the expression or activity of at least one inflammatory mediator of the dental pulp cell (e.g., nociceptive nerve endings, blood vesicle cells or inflammatory cells).
(§4) The dentins sample can be isolated by conventional methods and used in combination with a commercially available two-chamber diffusion cell, wherein the partition separating the two chambers holds the dentin sample (e.g., a dentin disk) in an orientation so that the dentin tubules provide the only connection between the two chambers. See, e.g., Hanks, et al. (1993) J. Dent. Res. 72:931-938; and Puapichartdumrong, et al. (2003) Internatl. Endodont. J. 36:674-81. […]

Series [4] deals with LPS-evoked NO production in RAW cells. As to the kind of experiment: Transdentinal diffusion; diffusate applied to LPS-stimulated RAW cells, NO. Particulars: 24 hours of diffusion through dentin; diffusate on RAW cells stimulated with LPS. The method, then:
as §3, §4

On to `CC(=O)Oc1ccccc1C(=O)O` [aspirin, acetylsalicyclic acid], for which the “inhibition of LPS-evoked PGE2 production” value in series [1] (compared to oleic acid) is recorded as “effective inhibitors of LPS-evoked PGE2 production”. Moreover, in series [2] (0.5 mM and lower (0.05, 0.005, 0.0005 mM)), the “reduction of LPS-evoked NO production” value is “did not significantly reduce LPS-evoked NO production”. Further, in series [2] (5 mM), the “reduction of LPS-evoked NO production” value was “significantly reduced NO production”. In series [2], the “reduction of spontaneous NO production” value is given as “small (not statistically significant) reduction” and the “inhibition of LPS-evoked NO production” value is listed as “effectively inhibited LPS-evoked NO production”. In addition, in the series with RAW cells, the toxicity to cells result was “non-toxic to cells”. Further, the “PGE2 production after diffusate application” value in series [3] is “significantly reduced”. In addition, the “LPS-evoked NO production after diffusate application” value in series [4] is recorded as “depressed”.
Turning to `CC(C)Cc1ccc(C(C)C(=O)O)cc1` (centres unmarked) [ibuprofen], the “inhibition of LPS-evoked PGE2 production” value in series [1] (50 μM) was “inhibited LPS-evoked PGE2 production”; in series [1] (compared to oleic acid) it was “effective inhibitors of LPS-evoked PGE2 production”. Further, in series [2] (50 μM), the “effect on LPS-evoked NO production” value is given as “no effect on LPS-evoked NO production”. Also, in series [2], the “inhibition of LPS-evoked NO production” value was “did suppress NO production”. Also, the “PGE2 production after diffusate application” value in series [3] is given as “significantly reduced”. The “LPS-evoked NO production after diffusate application” value in series [4] was “did not attenuate LPS-stimulated NO production”.
In the case of `CC/C=C\C/C=C\C/C=C\C/C=C\C/C=C\C/C=C\CCC(=O)O` [DHA, docosahexaenoic], in series [2], the “reduction of spontaneous NO production” value is “small (not statistically significant) reduction” and the “inhibition of LPS-evoked NO production” value is given as “inhibited NO production but to a lesser extent than aspirin”.
Take `CCCCCCCC/C=C\CCCCCCCC(=O)O` [oleic acid]: the “inhibition of LPS-evoked NO production” value in series [2] is “not shared”.
